Experimental data taken from ChEMBL document CHEMBL5724696, “Autophagy assay results for EUbOPEN Chemogenomics Library” (2024).

Assays:
[1] = test system: U2OS; assay: (§1) Here: values are normalized to the negative (DMSO; defined as 0% autophagy induction) and positive (250nM Torin1; mTOR inhibitor; defined as maximal inducer of autophagy = 100%) control compounds and represented as % of autophagy induction. […] The impact of autophagy induction on cells is complex and depends on the affected target. As such, the magnitude of a phenotype may not be equally mirrored in the %-value of autophagy induction and vice versa. The dynamics of the induction may indicate the mode of activation: e.g. activation via phosphorylation or a signaling cascade may occur fast, while activation via transcription factors may take considerably longer. […] Of note, treatment concentrations may be sub-optimal for specific compounds, leading to false negative annotations.; type: functional, Homo sapiens; details: Culturing Media DMEM, 1 % Penicillin/Streptomycin, 10% Fetal bovin serum Add-On: No, Screening Media Control DMEM, Screening Media Samples DMEM
[2] = test system: U2OS; assay: as §1; type: functional, Homo sapiens; details: Culturing Media DMEM, 1 % Penicillin/Streptomycin, 10% Fetal bovin serum Add-On: No, Screening Media Control DMEM, Screening Media Samples DMEM; remark: listed apart in the source
[3] = Compound Concentration 0.5 uM, Timepoint 12 hours
[4] = Compound Concentration 0.5 uM, Timepoint 24 hours
[5] = Compound Concentration 0.5 uM, Timepoint 36 hours
[6] = Compound Concentration 0.5 uM, Timepoint 60 hours
[7] = Compound Concentration 2 uM, Timepoint 12 hours
[8] = Compound Concentration 2 uM, Timepoint 24 hours
[9] = Compound Concentration 2 uM, Timepoint 36 hours
[10] = Compound Concentration 2 uM, Timepoint 60 hours
[11] = Compound Concentration 10 uM, Timepoint 12 hours
[12] = Compound Concentration 10 uM, Timepoint 24 hours
[13] = Compound Concentration 10 uM, Timepoint 36 hours
[14] = Compound Concentration 10 uM, Timepoint 60 hours

Row | Compound | autophagy induction [1, 3] [%] | autophagy induction [1, 4] [%] | autophagy induction [1, 5] [%] | autophagy induction [1, 6] [%] | autophagy induction [1, 7] [%] | autophagy induction [1, 8] [%] | autophagy induction [1, 9] [%] | autophagy induction [1, 10] [%] | autophagy induction [1, 11] [%] | autophagy induction [1, 12] [%] | autophagy induction [1, 13] [%] | autophagy induction [1, 14] [%] | autophagy induction [2, 3] [%] | autophagy induction [2, 4] [%] | autophagy induction [2, 5] [%] | autophagy induction [2, 6] [%] | autophagy induction [2, 7] [%] | autophagy induction [2, 8] [%] | autophagy induction [2, 9] [%] | autophagy induction [2, 10] [%] | also measured
1 | O=C(O)COc1cccc(CN(Cc2ccc(-n3cccn3)cc2)S(=O)(=O)c2cccnc2)c1 | 5.874 | 2.74 | 1.495 | -1.697 | -11.5162 | -13.8805 | -8.014 | -12.1859 | -5.999 | -5.085 | -8.443 | 1.395 | 1.733 | -2.792 | -2.001 | 114.184 | 12.9626 | 0.7228 | 0.396 | 114.202 | autophagy induction [2, 11]: 2.661%; autophagy induction [2, 12]: -2.358%; autophagy induction [2, 13]: 0.08453%; autophagy induction [2, 14]: 114.175%
2 | COc1cc(-n2cnc3cc(-c4ccc(Cl)cc4)sc3c2=O)ccc1OCCN1CCCC1 | -1.171 | 2.823 | 1.029 | -2.152 | -14.2965 | -7.54 | -8.816 | -10.4701 | 7.721 | 15.3334 | 18.9257 | 17.8082 | 4.067 | -3.025 | -2.555 | 114.356 | 0.09165 | 1.732 | 0.6188 | 114.522 | autophagy induction [2, 11]: -26.0106%; autophagy induction [2, 12]: -13.6231%; autophagy induction [2, 13]: -7.579%; autophagy induction [2, 14]: 114.809%
3 | Cc1cc([C@@H](C)Nc2cccc(-c3cc(C)c(C(=O)N[C@@H](C)C(=O)O)c(C)c3)c2)ccc1Cl | -5.116 | -3.567 | -5.902 | -1.838 | -9.884 | -6.925 | -1.645 | 5.389 | 8.557 | 0.1878 | -1.416 | -9.482 | -1.358 | -0.4353 | -1.357 | 114.287 | 0.7384 | 3.004 | -0.1787 | 114.309 | autophagy induction [2, 11]: 25.7636%; autophagy induction [2, 12]: 8.275%; autophagy induction [2, 13]: 1.804%; autophagy induction [2, 14]: 114.446%
4 | Cc1nc(C#Cc2ccnc(Cl)c2)c(C)n1-c1ccc(OC(F)(F)F)cc1 | 6.456 | 5.383 | 5.336 | 1.571 | -2.91 | 2.407 | -0.6644 | -12.3758 | 2.059 | 11.3882 | 11.4393 | 13.7118 | 6.745 | 0.06808 | -1.509 | 114.498 | 7.139 | -0.173 | -1.142 | 114.204 | autophagy induction [2, 11]: 1.1344%; autophagy induction [2, 12]: 2.694%; autophagy induction [2, 13]: 0.08816%; autophagy induction [2, 14]: 114.429%
5 | N#Cc1ccc(NC(=O)Nc2ccccc2Br)c2nn[nH]c12 | 5.86 | 3.694 | 2.244 | 1.525 | -10.6319 | -11.2857 | -14.4856 | -10.0033 | -0.1618 | -2.733 | -3.711 | -9.797 | -0.5776 | -3.216 | -2.984 | 114.391 | 0.1454 | -3.5634 | -1.494 | 114.288 | autophagy induction [2, 11]: -0.261%; autophagy induction [2, 12]: -3.379%; autophagy induction [2, 13]: -2.529%; autophagy induction [2, 14]: 114.424%
6 | CCCCN(CC)c1nc(C)nc2c1c(C)cn2-c1c(C)cc(C)cc1C.Cl | 18.6925 | 15.758 | 10.5217 | 0.4484 | 10.9121 | 4.341 | 5.091 | -0.08598 | 2.112 | -2.1052 | 3.327 | 1.7732 | 2.677 | -1.508 | -1.584 | 114.355 | 3.96 | -1.673 | -1.59 | 114.358 | autophagy induction [2, 11]: -1.788%; autophagy induction [2, 12]: -2.669%; autophagy induction [2, 13]: -2.565%; autophagy induction [2, 14]: 114.561%
7 | COc1ccc(/C=C/CCCCOc2ccc(C(=O)c3cccc(C(=O)O)c3)cc2CCC(=O)O)cc1 | 4.029 | -1.055 | -5.293 | -4.291 | -4.414 | -2.822 | -3.285 | 2.49 | -13.0779 | -9.945 | -0.5172 | -0.9267 | -1.627 | -2.76 | -1.525 | 114.261 | 2.991 | -2.166 | -0.5097 | 114.413 | autophagy induction [2, 11]: 6.765%; autophagy induction [2, 12]: 1.033%; autophagy induction [2, 13]: 1.832%; autophagy induction [2, 14]: 114.224%
8 | CCCCCNC(=O)NS(=O)(=O)c1cc([N+](=O)[O-])ccc1NC1CCCCC1 | 1.311 | 2.21 | -1.399 | -21.9841 | 12.2747 | 3.055 | 0.8075 | -5.198 | 0.1217 | -4.73 | -6.08 | -12.7619 | -2.4637 | -2.287 | -1.179 | 114.19 | -2.891 | -2.398 | -2.2883 | 114.254 | autophagy induction [2, 11]: -6.232%; autophagy induction [2, 12]: -4.153%; autophagy induction [2, 13]: -3.872%; autophagy induction [2, 14]: 114.439%
